Assay results taken from US20180161292A1, “NUTRITIONAL COMPOSITIONS CONTAINING BUTYRATE AND USES THEREOF” (Mead Johnson Nutrition Company, priority 2016, published 2018).

Tested on: oligodendrocyte precursor cells (OPCs)
Assay: OPC differentiation into mature oligodendric cells (MBP / PDGFRa immunostaining)
Assay type: cell-based, rat
Protocol: The OPCs were purified from P7 rat brain cortices. Rodent brain cortices were diced and dissociated with papain at 37° C. After trituration, […] were resuspended in a panning buffer and incubated at room temperature sequentially on the three immunopanning dishes: Ran-2 and GaIC were used for negative selection before positive selection with 04. OPCs were released from the panning dish using 0.05% Trypsin. OPCs were seeded onto PPL-coated coverslips at 200,000 per 25 mm circle coverslip in a chemically defined culture medium with PDGFa overnight.
Sodium Butyrate (NaB) was dissolved in sterile water and added into culture medium the next day to reach desire concentration. OPC coverslips were placed into 6-well dishes, 1 ml of NaB-containing culture medium without PDGFa was added to each well. Cells were cultured for 48 hours before fixation and immunostaining. PDGFRa antibody identifies OPCs and MBP (myelin basic protein) antibody labels differentiated oligodendrocytes. Percentage of MBP-positive cells out of all PDGFRa- and MBP-positives cells were quantified.
Examining a dose response for sodium butyrate on purified oligodendroglial cultures. Sodium butyrate was added to purified oligodendroglial cultures and cells were analyzed after 48 hours of treatment for effects on survival, proliferation and differentiation. Oligodendrocyte precursor cells were immunostained with PDGFRa shown in green, oligodendrocytes were immunostained with MBP in red, cell nuclei were labeled with DAPI in blue. Percentage of MBP-positive oligodendrocytes among all oligodendroglial cells was quantified at various concentrations of sodium butyrate. The asterisks represent significance based on Students t-test with the respective controls (*p<0.05, **p<0.01)

CCCC(=O)[O-].[Na+] [sodium butyrate]
number of oligodendric cells from OPC compared to the control (MBP immunohistochemistry) (250 μM sodium butyrate, FIG. 7): statistically significant increase
fold increase in the numbers of differentiated and matured oligodendric cells as compared to the control (250 μM sodium butyrate, purified OPCs from P7 rat brain cortices, 48 hours, FIG. 1): 2.6 fold
effect to promote OPC to differentiate into mature oligodendric cells (dose response 50 nM to 250 μM, 48 hours, FIG. 1): dose-dependent manner
increase in Oligo cells as compared to the control (each of the concentrations of sodium butyrate (50 nM, 500 nM, 5 μM, 50 μM, 250 μM), 48 hours, Student's t-test, FIG. 1): statistically significant increase
